The supplement of paper PMC10307832

Legend:
Assay in all cases: relative viability (nuclei count vs DMSO), 5 days (fraction); higher = more cells survive
[1] = compound: C=C(c1ccc(C(=O)O)cc1)c1cc2c(cc1C)C(C)(C)CCC2(C)C [Bexarotene] + Nc1nc2[nH]cc(CCc3ccc(C(=O)N[C@@H](CCC(=O)O)C(=O)O)cc3)c2c(=O)[nH]1 [Pemetrexed] (partner 0.2 µM)
How it was run: (§1)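 Five library-drug doses in √10 steps were combined with a fixed anchor-drug dose, or a single drug was given alone, by pin tool to lung cancer cell lines in 1536-well plates the day after seeding. Nuclei were stained and counted after 5 days. Relative viability is the nuclei count in treated wells over that in vehicle wells, taken as the median of duplicate plates.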

[2] = compound: C=C(c1ccc(C(=O)O)cc1)c1cc2c(cc1C)C(C)(C)CCC2(C)C [Bexarotene] + Cc1nc(Nc2ncc(C(=O)Nc3c(C)cccc3Cl)s2)cc(N2CCN(CCO)CC2)n1 [Dasatinib] (partner 0.075 µM)
How it was run: as §1

[3] = compound: C=C(c1ccc(C(=O)O)cc1)c1cc2c(cc1C)C(C)(C)CCC2(C)C [Bexarotene] + CS(=O)(=O)CCNCc1ccc(-c2ccc3ncnc(Nc4ccc(OCc5cccc(F)c5)c(Cl)c4)c3c2)o1 [Lapatinib] (partner 2 µM)
How it was run: as §1

[4] = compound: C=C(c1ccc(C(=O)O)cc1)c1cc2c(cc1C)C(C)(C)CCC2(C)C [Bexarotene] + C[C@@H](Oc1cc(-c2cnn(C3CCNCC3)c2)cnc1N)c1c(Cl)ccc(F)c1Cl [Crizotinib] (partner 1 µM)
How it was run: as §1

Cell Line	relative viability ([1]; first compound 0.08 µM)	relative viability ([1]; first compound 0.253 µM)	relative viability ([1]; first compound 0.8 µM)	relative viability ([1]; first compound 2.53 µM)	relative viability ([1]; first compound 8 µM)	relative viability ([2]; first compound 0.08 µM)	relative viability ([2]; first compound 0.253 µM)	relative viability ([2]; first compound 0.8 µM)	relative viability ([2]; first compound 2.53 µM)	relative viability ([2]; first compound 8 µM)	relative viability ([3]; first compound 0.08 µM)	relative viability ([3]; first compound 0.253 µM)	relative viability ([3]; first compound 0.8 µM)	relative viability ([3]; first compound 2.53 µM)	relative viability ([3]; first compound 8 µM)	relative viability ([4]; first compound 0.08 µM)	relative viability ([4]; first compound 0.253 µM)	relative viability ([4]; first compound 0.8 µM)	relative viability ([4]; first compound 2.53 µM)	relative viability ([4]; first compound 8 µM)
NCI-H522	1.01	1.18	1.11	0.855	0.862	0.939	0.874	0.957	0.842	0.93										
ABC-1						0.521	0.715	0.635	0.445	0.659	0.914	1.38	1.14	1.16	1.09	1.02	0.893	0.853	1.3	0.829
NCI-H1793	0.972	0.828	0.79	0.845	0.852	0.367	0.366	0.409	0.406	0.399	0.647	0.68	0.647	0.568	0.519					
NCI-H1395	0.885	0.929	0.808	0.9	0.931	0.448	0.385	0.367	0.407	0.419	1.05	0.935	0.926	0.902	0.997					
NCI-H1299											1.02	1.03	1.04	0.917	0.964	1	1.03	1.03	0.964	1.02
ChaGo-K-1	0.274	0.249	0.251	0.253	0.275	0.568	0.604	0.638	0.661	0.593						1.19	1.23	1.15		1.15
NCI-H2342	0.827	0.739	0.747	0.825	0.797	0.331	0.301	0.256	0.33	0.419										
A549											0.94	1.09	0.972	0.925	0.798	0.736	0.793	0.65	0.669	0.594
IA-LM												0.773	0.68	0.536	0.694		1.03	0.676	0.678	0.62
LCLC-103H	0.462	0.453	0.462	0.436	0.472	0.489	0.567	0.419	0.525	0.49						1.15	1.21	1.03	0.999	1.12
Calu-6											0.929	1.03	0.987	0.963	1.14	0.786	0.753	0.72	0.823	0.94
